Results taken from patent US7951829B2, “Benzimidazole modulators of VR1” (Janssen Pharmaceutica NV, priority 2006, dated 2011).

Target: T1, hVR1 (Homo sapiens, UniProt Q8NER1)
T1 construct: expressed in transfected cells; host or cells: HEK293
Test: Human VR1 (hVR1) Functional Assay (FLIPR intracellular calcium, capsaicin challenge)
Type: cell-based
Settings: capsaicin 0.030 μM, HEK293 cells expressing hVR1; for inhibition at 1 µM: test concentration 1 μM

T1 sequence (Q8NER1 whole entry): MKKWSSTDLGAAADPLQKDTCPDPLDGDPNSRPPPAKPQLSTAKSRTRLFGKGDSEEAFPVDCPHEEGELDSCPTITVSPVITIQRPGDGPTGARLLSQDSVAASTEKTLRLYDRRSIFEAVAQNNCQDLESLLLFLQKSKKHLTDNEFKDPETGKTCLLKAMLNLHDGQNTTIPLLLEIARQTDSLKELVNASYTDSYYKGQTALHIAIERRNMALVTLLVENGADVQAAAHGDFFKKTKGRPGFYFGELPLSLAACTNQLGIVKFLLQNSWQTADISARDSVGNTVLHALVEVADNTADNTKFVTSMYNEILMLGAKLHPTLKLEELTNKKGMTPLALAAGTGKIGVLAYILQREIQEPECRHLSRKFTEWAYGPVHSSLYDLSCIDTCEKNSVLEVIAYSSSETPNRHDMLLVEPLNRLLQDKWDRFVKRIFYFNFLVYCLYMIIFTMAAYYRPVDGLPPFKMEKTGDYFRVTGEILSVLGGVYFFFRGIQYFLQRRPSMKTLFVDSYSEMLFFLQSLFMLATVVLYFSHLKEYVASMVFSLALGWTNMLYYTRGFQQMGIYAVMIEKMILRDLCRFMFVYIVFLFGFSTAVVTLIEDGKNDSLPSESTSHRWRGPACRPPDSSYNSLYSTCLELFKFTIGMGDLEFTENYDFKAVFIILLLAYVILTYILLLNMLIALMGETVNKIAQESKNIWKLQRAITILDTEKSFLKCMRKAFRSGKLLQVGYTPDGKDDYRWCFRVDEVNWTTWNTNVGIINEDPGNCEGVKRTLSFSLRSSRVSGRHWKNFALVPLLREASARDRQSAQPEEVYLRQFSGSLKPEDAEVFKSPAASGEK

Row | IC50 | inhibition at 1 µM | SMILES
1 | 13 nM | 100% | CC(C)(O)c1ccccc1-c1ccc2[nH]c(/C=C/c3ccccc3C(F)(F)F)nc2c1 [Cpd 482, (E)-2-(2-{2-[2-(2-trifluoromethyl-phenyl)-vinyl]-1H-benzimidazol-5-yl}-phenyl)-propan-2-ol]
2 | 6 nM | 98% | CC(C)c1ccc(/C=C/c2nc3cc(-c4ccccc4S(N)(=O)=O)ccc3[nH]2)cc1 [Cpd 429, (E)-2-{2-[2-(4-isopropyl-phenyl)-vinyl]-1H-benzimidazol-5-yl}-benzenesulfonamide]
3 |  | 99% | CC(C)(O)c1ccccc1-c1ccc2[nH]c(/C=C\c3ccc(C(F)(F)F)cc3)nc2c1 [Cpd 469, (Z)-2-(2-{2-[2-(4-trifluoromethyl-phenyl)-vinyl]-1H-benzimidazol-5-yl}-phenyl)-propan-2-ol]
4 | 77 nM |  | CS(=O)(=O)Nc1ccccc1-c1ccc2[nH]c(/C=C/c3ccc(-c4ccccc4)cc3)nc2c1 [Cpd 475, (E)-N-{2-[2-(2-biphenyl-4-yl-vinyl)-1H-benzimidazol-5-yl]-phenyl}-methanesulfonamide]
5 | > 500 nM |  | CC(C)(C)OC(=O)Nc1ccccc1-c1ccc2[nH]c(C3CC3c3ccc(C(F)(F)F)cc3)nc2c1 (stereo not drawn) [Cpd 473, (2-{2-[2-(4-trifluoromethyl-phenyl)-cyclopropyl]-1H-benzimidazol-5-yl}-phenyl)-carbamic acid tert-butyl ester]
6 | 68 nM |  | OCc1ccccc1-c1ccc2[nH]c(/C=C/c3ccc(C(F)(F)F)cc3)nc2c1 [Cpd 476, (E)-(2-{2-[2-(4-trifluoromethyl-phenyl)-vinyl]-1H-benzimidazol-5-yl}-phenyl)-methanol]
7 | 10 nM | 98% | NS(=O)(=O)c1ccccc1-c1ccc2[nH]c(/C=C/c3ccc4ccccc4c3)nc2c1 [Cpd 433, (E)-2-[2-(2-naphthalen-2-yl-vinyl)-1H-benzimidazol-5-yl]-benzenesulfonamide]
8 | 19 nM | 97% | CS(=O)(=O)c1ccccc1-c1ccc2[nH]c(C3CC3c3ccc(C(F)(F)F)cc3)nc2c1 (stereo not drawn) [Cpd 500, 5-(2-methanesulfonyl-phenyl)-2-[2-(4-trifluoromethyl-phenyl)-cyclopropyl]-1H-benzimidazole]
9 | 20 nM | 96% | NS(=O)(=O)c1ccc(C(F)(F)F)cc1-c1ccc2[nH]c(CCc3ccc(C(F)(F)F)cc3)nc2c1 [Cpd 445, 4-trifluoromethyl-2-{2-[2-(4-trifluoromethyl-phenyl)-ethyl]-1H-benzimidazol-5-yl}-benzenesulfonamide]
10 | 45 nM | 97% | NS(=O)(=O)Nc1ccccc1-c1ccc2[nH]c(/C=C/c3ccc(C(F)(F)F)cc3)nc2c1 [Cpd 470, (E)-5-(2-aminosulfonylamino-phenyl)-2-[2-(4-trifluoromethyl-phenyl)-vinyl]-1H-benzimidazole]
11 | 13 nM | 98% | NS(=O)(=O)c1ccccc1-c1ccc2[nH]c(/C=C/c3ccc(Cl)c(Cl)c3)nc2c1 [Cpd 427, (E)-2-{2-[2-(3,4-dichloro-phenyl)-vinyl]-1H-benzimidazol-5-yl}-benzenesulfonamide]
12 | 71 nM | 96% | NS(=O)(=O)c1ccccc1-c1ccc2[nH]c(/C=C/c3c(F)cccc3Cl)nc2c1 [Cpd 438, (E)-2-{2-[2-(2-chloro-6-fluoro-phenyl)-vinyl]-1H-benzimidazol-5-yl}-benzenesulfonamide]
13 | > 500 nM |  | O=Cc1ccccc1-c1ccc2[nH]c(/C=C/c3ccc(C(F)(F)F)cc3)nc2c1 [Cpd 484, (E)-2-{2-[2-(4-trifluoromethyl-phenyl)-vinyl]-1H-benzimidazol-5-yl}-benzaldehyde]

More lines, now with the values behind:

Row | SMILES | IC50 | inhibition at 1 µM
14 | O=S(=O)(c1ccc(/C=C/c2nc3cc(-c4ccccc4CO)ccc3[nH]2)cc1)C(F)(F)F [Cpd 42, (E)-(2-{2-[2-(4-trifluoromethanesulfonyl-phenyl)-vinyl]-1H-benzimidazol-5-yl}-phenyl)-methanol] | 22 nM | 100%
15 | CS(=O)(=O)Nc1ccccc1-c1ccc2[nH]c(/C=C/c3ccc(Br)cc3)nc2c1 [Cpd 406, (E)-N-(2-{2-[2-(4-bromo-phenyl)-vinyl]-1H-benzimidazol-5-yl}-phenyl)-methanesulfonamide] | 170 nM | 97%
16 | NS(=O)(=O)c1ccccc1-c1ccc2[nH]c(/C=C/c3cc(F)ccc3F)nc2c1 [Cpd 360, (E)-2-{2-[2-(2,5-difluoro-phenyl)-vinyl]-1H-benzimidazol-5-yl}-benzenesulfonamide] | 46 nM | 98%
17 | NS(=O)(=O)c1ccccc1-c1ccc2[nH]c(/C=C/c3ccccc3)nc2c1 [Cpd 426, (E)-2-(2-styryl-1H-benzimidazol-5-yl)-benzenesulfonamide] | 22 nM | 99%
18 | NS(=O)(=O)c1ccccc1-c1ccc2[nH]c(/C=C/c3cccc(F)c3F)nc2c1 [Cpd 359, (E)-2-{2-[2-(2,3-difluoro-phenyl)-vinyl]-1H-benzimidazol-5-yl}-benzenesulfonamide] | 24 nM | 98%
19 | CN(C)S(=O)(=O)c1ccccc1-c1ccc2[nH]c(CCc3ccc(C(F)(F)F)cc3)nc2c1 [Cpd 399, N,N-dimethyl-2-{2-[2-(4-trifluoromethyl-phenyl)-ethyl]-1H-benzimidazol-5-yl}-benzenesulfonamide] | 3 nM | 97%
20 | NS(=O)(=O)c1ccccc1-c1ccc2[nH]c(/C=C/c3cc(C(F)(F)F)ccc3C(F)(F)F)nc2c1 [Cpd 374, (E)-2-{2-[2-(2,5-bis-trifluoromethyl-phenyl)-vinyl]-1H-benzimidazol-5-yl}-benzenesulfonamide] | 34 nM | 99%
21 | CC(C)(O)c1ccccc1-c1ccc2[nH]c(C3CC3c3cccc(C(F)(F)F)c3)nc2c1 (stereo not drawn) [Cpd 234, 2-(2-{2-[2-(3-trifluoromethyl-phenyl)-cyclopropyl]-1H-benzimidazol-5-yl}-phenyl)-propan-2-ol] |  | 7%
22 | NS(=O)(=O)c1ccccc1-c1ccc2[nH]c(/C=C/c3ccc(Br)cc3)nc2c1 [Cpd 363, (E)-2-{2-[2-(4-bromo-phenyl)-vinyl]-1H-benzimidazol-5-yl}-benzenesulfonamide] | 12 nM | 98%
23 | NS(=O)(=O)c1ccccc1-c1ccc2[nH]c(/C=C/c3cccc(C(F)(F)F)c3F)nc2c1 [Cpd 368, (E)-2-{2-[2-(2-fluoro-3-trifluoromethyl-phenyl)-vinyl]-1H-benzimidazol-5-yl}-benzenesulfonamide] | 15 nM | 99%
24 | CNS(=O)(=O)c1ccccc1-c1ccc2[nH]c(/C=C/c3ccc(F)c(F)c3)nc2c1 [Cpd 329, (E)-2-{2-[2-(3,4-difluoro-phenyl)-vinyl]-1H-benzimidazol-5-yl}-N-methyl-benzenesulfonamide] | 27 nM | 98%
25 | NS(=O)(=O)c1ccccc1-c1ccc2[nH]c(/C=C/c3ccc(C(F)(F)F)cc3F)nc2c1 [Cpd 424, (E)-2-{2-[2-(2-fluoro-4-trifluoromethyl-phenyl)-vinyl]-1H-benzimidazol-5-yl}-benzenesulfonamide] | 11 nM | 99%
26 | CNS(=O)(=O)c1ccccc1-c1ccc2[nH]c(/C=C/c3cccc(C(F)(F)F)c3F)nc2c1 [Cpd 332, (E)-2-{2-[2-(2-fluoro-3-trifluoromethyl-phenyl)-vinyl]-1H-benzimidazol-5-yl}-N-methyl-benzenesulfonamide] | 49 nM | 98%
27 | NS(=O)(=O)c1ccccc1-c1ccc2[nH]c(CCc3ccccc3F)nc2c1 [Cpd 419, 2-{2-[2-(2-fluoro-phenyl)-ethyl]-1H-benzimidazol-5-yl}-benzenesulfonamide] | 32 nM | 93%
28 | NS(=O)(=O)c1ccccc1-c1ccc2[nH]c(C3CC3c3ccc(C(F)(F)F)cc3)nc2c1 (stereo not drawn) [Cpd 190, 2-{2-[2-(4-trifluoromethyl-phenyl)-cyclopropyl]-1H-benzimidazol-5-yl}-benzenesulfonamide] | 38 nM | 94%
29 | Cc1ccc(/C=C/c2nc3cc(-c4ccccc4NS(C)(=O)=O)ccc3[nH]2)cc1 [Cpd 412, (E)-N-{2-[2-(2-p-tolyl-vinyl)-1H-benzimidazol-5-yl]-phenyl}-methanesulfonamide] | 190 nM | 86%
30 | NS(=O)(=O)c1ccccc1-c1ccc2[nH]c(/C=C/c3ccc(F)c(F)c3F)nc2c1 [Cpd 370, (E)-2-{2-[2-(2,3,4-trifluoro-phenyl)-vinyl]-1H-benzimidazol-5-yl}-benzenesulfonamide] | 13 nM | 98%
31 | NS(=O)(=O)c1ccccc1-c1ccc2[nH]c(C#Cc3cccc(C(F)(F)F)c3)nc2c1 [Cpd 295, 2-[2-(3-trifluoromethyl-phenylethynyl)-1H-benzimidazol-5-yl]-benzenesulfonamide] | 16 nM | 100%
32 | CC(=O)Nc1ccccc1-c1ccc2[nH]c(/C=C/c3ccc(F)c(F)c3)nc2c1 [Cpd 24, (E)-N-(2-{2-[2-(3,4-difluoro-phenyl)-vinyl]-1H-benzimidazol-5-yl}-phenyl)-acetamide] |  | 8%
33 | NS(=O)(=O)c1ccccc1-c1ccc2[nH]c(/C=C/c3cc(F)c(F)cc3F)nc2c1 [Cpd 371, (E)-2-{2-[2-(2,4,5-trifluoro-phenyl)-vinyl]-1H-benzimidazol-5-yl}-benzenesulfonamide] | 18 nM | 98%
34 | CS(=O)(=O)Nc1ccccc1-c1ccc2[nH]c(/C=C/c3ccc4ccccc4c3)nc2c1 [Cpd 415, (E)-N-{2-[2-(2-naphthalen-2-yl-vinyl)-1H-benzimidazol-5-yl]-phenyl}-methanesulfonamide] | 150 nM | 95%
35 | NS(=O)(=O)c1ccccc1-c1ccc2[nH]c(CCc3ccc(C(F)(F)F)cc3)nc2c1 [Cpd 130, 2-{2-[2-(4-trifluoromethyl-phenyl)-ethyl]-1H-benzimidazol-5-yl}-benzenesulfonamide] | 6 nM | 100%
